Data as given in ChEMBL document CHEMBL1147352, “Paniceins and related sesquiterpenoids from the Mediterranean sponge Reniera fulva” (1993).

What was measured:
CCRF-CEM = assay: Cytotoxicity against human CCRF-CEM cells; assay type: functional; details: for GI50: read-out: Log10GI50 (converted); for TGI: read-out: Log10TGI (converted)
NCI-H522 = assay: Cytotoxicity against human NCI-H522 cells; assay type: functional; details: for GI50: read-out: Log10GI50 (converted); for CC50: read-out: Log10LC50 (converted); for TGI: read-out: Log10TGI (converted)

| SMILES | GI50 (CCRF-CEM) [µM] | CC50 (CCRF-CEM; read-out: Log10LC50 (converted)) [µM] | TGI (CCRF-CEM) [µM] | GI50 (NCI-H522) [µM] | CC50 (NCI-H522) [µM] | TGI (NCI-H522) [µM] |
| --- | --- | --- | --- | --- | --- | --- |
| COc1cc(C)c(CC/C(C)=C/Cc2cc(O)ccc2O)c(C)c1C [PANICEIN A HYDROQUINONE] | 7.76 | > 25.1 | > 25.1 | – | – | – |
| C/C(=C\Cc1cc(O)ccc1O)CCc1c(C)c(O)c(O)c(C=O)c1C [PANICEIN C] | 3.31 | – | 9.55 | 5.25 | 63.1 | 21.4 |
| C/C(=C\Cc1cc(O)ccc1O)CCc1c(C)cc(O)c(C=O)c1C [PANICEIN B3] | 4.47 | – | 30.2 | 10 | 55 | 23.4 |
